Test results taken from PMC5680089 (Science signaling, 2017).

Tests used:
S1P1-GFP (U2OS) = S1P1-GFP (U2OS) (Homo sapiens, UniProt P21453); experiment: receptor internalization, imaging; format: cell-based; details: agonist; […] min, […]°C
ApoM-Fc = ApoM-Fc (Homo sapiens, UniProt O95445); experiment: intrinsic Trp fluorescence quenching; format: binding
Sequence of ApoM-Fc (O95445 20-188 limits assumed): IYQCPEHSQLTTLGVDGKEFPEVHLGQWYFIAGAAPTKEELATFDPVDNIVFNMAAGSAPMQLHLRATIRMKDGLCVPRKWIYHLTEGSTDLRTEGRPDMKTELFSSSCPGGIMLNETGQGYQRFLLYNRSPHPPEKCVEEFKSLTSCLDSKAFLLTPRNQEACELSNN

Sequence of S1P1-GFP (U2OS) (P21453 whole entry): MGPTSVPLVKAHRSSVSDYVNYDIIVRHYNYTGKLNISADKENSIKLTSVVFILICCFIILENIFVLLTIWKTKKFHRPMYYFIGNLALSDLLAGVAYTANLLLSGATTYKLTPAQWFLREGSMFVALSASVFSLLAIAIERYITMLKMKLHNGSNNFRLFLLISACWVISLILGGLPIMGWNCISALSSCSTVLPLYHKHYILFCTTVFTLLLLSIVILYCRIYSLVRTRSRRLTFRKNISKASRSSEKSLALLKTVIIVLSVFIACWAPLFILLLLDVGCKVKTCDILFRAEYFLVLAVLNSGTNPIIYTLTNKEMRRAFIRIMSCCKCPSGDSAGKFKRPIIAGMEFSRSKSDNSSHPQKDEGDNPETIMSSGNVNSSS

| SMILES | receptor internalization, imaging (S1P1-GFP (U2OS)) | EC50 (ApoM-Fc) [nM] |
| --- | --- | --- |
| CCCCCCCCc1ccc(CCC(N)(CO)COP(=O)(O)O)cc1 (centres unmarked) [FTY720-P] | lower than that induced by FTY720-P, a potent and irreversible inducer of S1P1 endocytosis |  |
| CCCCCCCCCCCCC/C=C/[C@@H](O)[C@@H](N)COP(=O)(O)O [S1P] |  | ~220 |
